From patent publication US20080248030A1, “Method of Treating Angiogenic Diseases” (Children's Medical Center Corporation, priority 2005, published 2008)

Assays:
[1] = tested on: BCE cells; assay: Bovine capillary endothelial (BCE) cell proliferation assay; type: cell-based; details: 10 pg/ml to 1 μg/ml TNP-470-equivalent concentration, 72 h
Description: For the proliferation assay, cells were washed with PBS and dispersed in a 0.05% trypsin solution. Cells were suspended (15,000 cells/ml) in DMEM supplemented with 10% BCS and 1% GPS, plated onto gelatinized 24-well culture plates (0.5 ml/well), and incubated for 24 h (37° C., 10% CO2). The media was replaced with 0.25 ml of DMEM, 5% BCS and 1% GPS and the test sample applied. Cells were challenged with free or conjugated TNP-470 (10 pg/ml to 1 μg/ml TNP-470-equivalent concentration). After 30 min of incubation, media and bFGF were added to obtain a final volume of 0.5 ml of DMEM, 5% BCS, 1% GPS and 1 ng/ml bFGF. Control cells were grown with or without bFGF. After 72 hr, cells were dispersed in trypsin, resuspended in Hematall (Fisher Scientific, Pittsburgh, Pa.), and counted in a Coulter counter.

[2] = tested on: chick aortic ring; assay: Chick aortic ring endothelial sprouting assay; type: cell-based; details: for effect on outgrowth: 100 pg/ml
Description: Aortic arches were dissected from day-14 chick embryos, cut into cross-sectional fragments, and implanted in vitro in Matrigel using a modification of methods previously described (V. Muthulckaruppan, personal communication). When cultured in MCDB-131 medium supplemented with 5% fetal bovine serum, endothelial cells sprouted and vascular channel formation occurred within 24-48 hours. Free or conjugated TNP-470 (10 pg/ml to 1 μg/ml) was added to the culture.

[3] = tested on: VEGFR-2; details: recently shown; cited from earlier work
[4] = Early mouse development; details: injected into 7 and 17 day-old BALB/c mice
Description: Free and conjugated TNP-470 were injected into 7 and 17 day-old BALB/c mice in order to test their effects on normal development.

[5] = tested on: LLC; assay: Antitumor activity on C57BL/6J mice bearing s.c. LLC; details: 30 mg/kg q.o.d., data not shown
[6] = human, in vivo; cited from earlier work
[7] = tested on: human melanoma (A2058); type: in vivo; details: Caplostatin 30 mg/kg s.c. q.o.d; Avastin 1 mg/kg i.p. twice/week
Description: Combination treatment was also tested on mice bearing s.c. A2058 human melanoma, PC-3M-LN4 human prostate carcinoma or COLO-205 colon carcinoma or orthotopic intracranial U87-luciferase human glioblastoma.

[8] = tested on: liver regeneration post hepatectomy; assay: Hepatectomy model (liver regeneration); type: in vivo, C57BL/6J mice
Description: Male C57BL/6J mice underwent a partial hepatectomy through a midline incision after general anesthesia with isoflourane^33. Free or conjugated TNP-470 (30 mg/kg) were given s.c. every other day for 8 days beginning on the day of surgery according to the scheme described in FIG. 4a. Alternatively, the doses given were 60 mg/kg the day of surgery and 4 days later or 120 mg/kg once on the day of the partial hepatectomy. The liver was harvested on the 8th day, weighed and analyzed by histology.
This non-neoplastic model is a relatively fast (8 days) in vivo angiogenesis-dependent process^33. We employed the hepatectomy model to compare the endothelial cell inhibitory activity of free and conjugated TNP-470, because liver regeneration post hepatectomy is angiogenesis-dependent, similar to tumor growth^33,34.

[9] = tested on: A2058 human melanoma; assay: Antitumor activity on SCID mice bearing s.c. A2058 human melanoma; type: in vivo; details: summary in conclusions, tumor models not named
Description: Each group consisted of 5 mice.

Compound	inhibition of bFGF-induced proliferation (cytostatic effect) [1]	effect on outgrowth [2]	VEGFR-2 phosphorylation [3]	TIC [7]	other results
CO[C@@H]1[C@H](OC(=O)NC(=O)CCl)CC[C@]2(CO2)[C@H]1[C@@]1(C)O[C@@H]1CC=C(C)C [TNP-470]	inhibited bFGF-induced proliferation	completely prevented outgrowth	inhibit VEGFR-2 phosphorylation		effect on normal development (weight gain) [4]: inhibited growth, by inhibiting weight gain; induction of weight loss [5]: did
COc1cccc2c1C(=O)c1c(O)c3c(c(O)c1C2=O)C[C@@](O)(C(=O)CO)C[C@@H]3O[C@H]1C[C@H](N)[C@H](O)[C@H](C)O1 [doxorubicin]					t1/2α (in words) [6]: few minutes
Avastin: recombinant humanized antibody to Vascular Endothelial Growth Factor (VEGF), Genentech				0.47	
N-(2-lydroxypropyl)methacrylamide (HPMA) copolymer-TNP-470 conjugate [HPMA copolymer-TNP-470]	inhibited bFGF-induced proliferation	completely prevented outgrowth	inhibit VEGFR-2 phosphorylation	029	effect on vascular sprouts ([2]; 50 pg/ml): reduced the number and length of vascular sprouts; inhibition of liver regeneration ([8]; 60 mg/kg every four days): had an equivalent effect as the 30 mg/kg q.o.d. dosing schedule; inhibition of liver regeneration ([8]; single injection of 120 mg/kg at the day of hepatectomy): had an equivalent effect as the 30 mg/kg q.o.d. dosing schedule; T/C values for the conjugate (summary) [9]: 0.12-0.14
